Where two headings read alike, the source gives them in different places.
Key:
PI3 kinase isoform beta = target: T1, PI3 kinase isoform beta (Homo sapiens, UniProt P42338); assay: PI3K scintillation proximity kinase assay, beta isoform; type: biochemical
T1 construct: made in house
Procedure: (§1) Activity of compounds in Table 4, expressed as Ki the dissociation constant for inhibition binding, were determined using the following test procedures.
(§2) Baculovirus expressing different fragments of PI3Kγ fused to GST have been previously described by Stoyanova, S., Bulgarelli-Leva, G., Kirsch, C., Hanck, T., Klinger, R., Wetzker, R., Wymann, M. P. (1997) Lipid- and protein kinase activities of G protein-coupled PI 3-kinase gamma: structure-activity analysis and interactions with wortmannin. Biochem. J., 324:489. Residues 38-1102 of human PI3Kγ are subcloned into the BamH1 and EcoR1 sites of the transfer vector pAcG2T (Pharmingen) to create a GST-P13Kγ lacking the first 37 residues of PI3Kγ. To express the recombinant protein, Sf9 (Spodoptera frugiperda 9) insect cells are routinely maintained at densities between 3×10^5 and 3×10^6 cells/ml in serum containing TNMFH medium (Sigma). Sf9 cells, at a density of 2×10^6 are infected with human GST-PI3γΔ34 baculovirus at a multiplicity of infection (m.o.i.) of 1 for 72 hours. The infected cells are harvested by centrifugation at 1400 g for 4 minutes at 4° C. and the cell pellets are frozen at −80° C. Both Sf9 and Sf21 cells work equally well. […] Cell lysate (supernatant) is added (usually as 50 ml lysate to 1 ml GST resin in 50 ml tubes) and gently rotated on a mixer at 4° C. for 2-3 hours. The unbound flow through sample is collected by centrifugation at 1000 g for 5 minutes at 4° C. using a DENLEY™ centrifuge. The 1 ml GST resin containing bound material is transferred to a 15 ml FALCON™ centrifuge tube for subsequent washing and elution steps. Firstly a series of 3 cycles of washings (mixing by gentle inversion) is performed with 15 ml ice cold wash Buffer A (50 mM Tris-HCl pH 7.5, 1% Triton X-100, 2 mM DTT) interspersed with centrifugation at 1000 g for 5 minutes at 4° C. A final single wash step is performed with 15 ml ice cold wash Buffer B (50 mM Tris-HCl pH 7.5, 2 mM DTT) and then centrifuged at 1000 g for 5 minutes at 4° C. The washed GST resin is finally eluted with 4 cycles of 1 ml ice cold elution buffer (50 mM Tris-HCl pH 7.5, 10 mM reduced glutathione, 2 mM DTT, 150 mM NaCl, 1 mM NaF, 50% ethylene glycol and protease inhibitors) interspersed with centrifugation at 1000 g for 5 minutes at 4° C. Samples are aliquoted and stored at −20° C. The isoforms in Table 4 were similarly purified.
(§3) An in vitro kinase assay was established that measures the transfer of the terminal phosphate of adenosine triphosphate to phosphatidylinositol. The kinase reaction is performed in a white 96 well microtitre plate as a Scintillation Proximity Assay. […] The plate is incubated at room temperature for 60 minutes and the reaction terminated by the adding 150 μl of WGA-bead stop solution (40 mM Tris, 200 mM NaCl, 2 mM EGTA, 1.3 mM ethylene diamine tetraacetic acid (EDTA), 2.6 μM ATP and 0.5 mg of Wheat Germ Agglutinin-SPA beads (Amersham Biosciences) to each well. The plate is sealed, incubated at room temperature for 60 minutes, centrifuged at 1200 rpm and then counted for 1 minute using a scintillation counter. Total activity is determined by adding 10 μl of 5% dimethylsulphoxide (DMSO) and non-specific activity is determined by adding 10 μl 50 mM EDTA in place of the test compound.

human PI3Kγ (GST-p110γ) = target: T2, human PI3Kγ (GST-p110γ) (Homo sapiens, UniProt P48736); assay: PI3K scintillation proximity kinase assay, gamma isoform; type: biochemical; conditions: PI3 kinase isoform gamma
T2 construct: Residues 38-1102 of human PI3Kγ are subcloned into the BamH1 and EcoR1 sites of the transfer vector pAcG2T; made in house; host or cells: Sf9 (Spodoptera frugiperda) insect cells, baculovirus
T2 sequence (P48736 38-1102): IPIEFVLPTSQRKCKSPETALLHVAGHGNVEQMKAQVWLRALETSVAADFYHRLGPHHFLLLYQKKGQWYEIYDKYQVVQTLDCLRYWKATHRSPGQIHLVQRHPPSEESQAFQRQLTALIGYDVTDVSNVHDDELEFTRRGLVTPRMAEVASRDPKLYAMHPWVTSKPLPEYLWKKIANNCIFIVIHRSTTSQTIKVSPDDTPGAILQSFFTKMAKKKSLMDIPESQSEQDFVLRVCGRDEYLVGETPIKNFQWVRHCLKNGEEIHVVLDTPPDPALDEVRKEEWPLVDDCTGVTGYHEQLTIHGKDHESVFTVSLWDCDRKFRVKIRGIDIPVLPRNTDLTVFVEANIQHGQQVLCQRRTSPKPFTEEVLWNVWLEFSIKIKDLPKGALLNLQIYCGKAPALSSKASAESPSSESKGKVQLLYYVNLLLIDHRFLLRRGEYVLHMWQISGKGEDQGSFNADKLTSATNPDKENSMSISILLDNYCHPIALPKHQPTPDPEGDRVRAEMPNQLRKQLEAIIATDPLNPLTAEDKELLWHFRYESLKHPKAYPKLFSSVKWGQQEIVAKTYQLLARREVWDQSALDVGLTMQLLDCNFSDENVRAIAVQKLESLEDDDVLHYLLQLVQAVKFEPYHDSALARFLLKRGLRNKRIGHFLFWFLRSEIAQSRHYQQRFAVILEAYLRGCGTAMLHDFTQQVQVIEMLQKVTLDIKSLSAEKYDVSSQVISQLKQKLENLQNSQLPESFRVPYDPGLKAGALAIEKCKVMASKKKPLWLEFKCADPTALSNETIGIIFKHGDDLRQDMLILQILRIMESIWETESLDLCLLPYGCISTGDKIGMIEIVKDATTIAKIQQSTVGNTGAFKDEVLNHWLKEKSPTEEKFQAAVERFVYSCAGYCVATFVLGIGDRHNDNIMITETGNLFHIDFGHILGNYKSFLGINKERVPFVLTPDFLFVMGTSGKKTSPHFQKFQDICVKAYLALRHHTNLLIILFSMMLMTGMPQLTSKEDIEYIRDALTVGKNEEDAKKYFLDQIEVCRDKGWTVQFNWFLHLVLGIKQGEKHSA
Procedure: as §1, §2, §3

PI3 kinase isoform delta = target: T3, PI3 kinase isoform delta (Homo sapiens, UniProt O00329); assay: PI3K scintillation proximity kinase assay, delta isoform; type: biochemical
T3 construct: made in house
T3 sequence (O00329 1-1044): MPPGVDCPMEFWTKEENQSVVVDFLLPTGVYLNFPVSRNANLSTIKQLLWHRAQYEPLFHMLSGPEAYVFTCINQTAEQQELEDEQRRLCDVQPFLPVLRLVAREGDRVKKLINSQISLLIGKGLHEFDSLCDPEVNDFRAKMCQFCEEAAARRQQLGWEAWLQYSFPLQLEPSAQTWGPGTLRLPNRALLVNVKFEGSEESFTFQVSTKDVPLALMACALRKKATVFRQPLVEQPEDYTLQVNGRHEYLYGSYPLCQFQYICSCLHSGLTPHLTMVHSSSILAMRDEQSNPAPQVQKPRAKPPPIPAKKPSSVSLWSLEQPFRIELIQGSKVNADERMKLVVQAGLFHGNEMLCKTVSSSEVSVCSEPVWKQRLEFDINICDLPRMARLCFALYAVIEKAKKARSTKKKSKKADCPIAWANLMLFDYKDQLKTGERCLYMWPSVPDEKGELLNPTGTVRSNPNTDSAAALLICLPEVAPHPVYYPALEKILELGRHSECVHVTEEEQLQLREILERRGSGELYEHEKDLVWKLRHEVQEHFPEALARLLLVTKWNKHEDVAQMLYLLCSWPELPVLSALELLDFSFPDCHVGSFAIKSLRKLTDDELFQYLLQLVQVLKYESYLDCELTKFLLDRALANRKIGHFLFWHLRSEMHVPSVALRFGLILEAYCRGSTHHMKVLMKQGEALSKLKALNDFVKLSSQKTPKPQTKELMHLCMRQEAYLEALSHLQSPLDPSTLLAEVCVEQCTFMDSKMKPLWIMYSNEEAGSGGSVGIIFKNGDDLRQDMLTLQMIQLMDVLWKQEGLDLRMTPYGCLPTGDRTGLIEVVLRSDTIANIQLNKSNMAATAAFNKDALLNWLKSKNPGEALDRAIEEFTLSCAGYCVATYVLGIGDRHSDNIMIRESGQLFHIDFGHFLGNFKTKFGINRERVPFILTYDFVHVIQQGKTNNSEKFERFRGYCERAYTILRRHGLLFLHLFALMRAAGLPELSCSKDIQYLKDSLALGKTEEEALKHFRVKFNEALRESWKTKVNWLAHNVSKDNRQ
Procedure: as §1, §2, §3

PI3 kinase isoform alpha = target: T4, PI3 kinase isoform alpha (Homo sapiens, UniProt P42336); assay: PI3K scintillation proximity kinase assay, alpha isoform; type: biochemical
T4 construct: made in house
T4 sequence (P42336 whole entry, canonical isoform): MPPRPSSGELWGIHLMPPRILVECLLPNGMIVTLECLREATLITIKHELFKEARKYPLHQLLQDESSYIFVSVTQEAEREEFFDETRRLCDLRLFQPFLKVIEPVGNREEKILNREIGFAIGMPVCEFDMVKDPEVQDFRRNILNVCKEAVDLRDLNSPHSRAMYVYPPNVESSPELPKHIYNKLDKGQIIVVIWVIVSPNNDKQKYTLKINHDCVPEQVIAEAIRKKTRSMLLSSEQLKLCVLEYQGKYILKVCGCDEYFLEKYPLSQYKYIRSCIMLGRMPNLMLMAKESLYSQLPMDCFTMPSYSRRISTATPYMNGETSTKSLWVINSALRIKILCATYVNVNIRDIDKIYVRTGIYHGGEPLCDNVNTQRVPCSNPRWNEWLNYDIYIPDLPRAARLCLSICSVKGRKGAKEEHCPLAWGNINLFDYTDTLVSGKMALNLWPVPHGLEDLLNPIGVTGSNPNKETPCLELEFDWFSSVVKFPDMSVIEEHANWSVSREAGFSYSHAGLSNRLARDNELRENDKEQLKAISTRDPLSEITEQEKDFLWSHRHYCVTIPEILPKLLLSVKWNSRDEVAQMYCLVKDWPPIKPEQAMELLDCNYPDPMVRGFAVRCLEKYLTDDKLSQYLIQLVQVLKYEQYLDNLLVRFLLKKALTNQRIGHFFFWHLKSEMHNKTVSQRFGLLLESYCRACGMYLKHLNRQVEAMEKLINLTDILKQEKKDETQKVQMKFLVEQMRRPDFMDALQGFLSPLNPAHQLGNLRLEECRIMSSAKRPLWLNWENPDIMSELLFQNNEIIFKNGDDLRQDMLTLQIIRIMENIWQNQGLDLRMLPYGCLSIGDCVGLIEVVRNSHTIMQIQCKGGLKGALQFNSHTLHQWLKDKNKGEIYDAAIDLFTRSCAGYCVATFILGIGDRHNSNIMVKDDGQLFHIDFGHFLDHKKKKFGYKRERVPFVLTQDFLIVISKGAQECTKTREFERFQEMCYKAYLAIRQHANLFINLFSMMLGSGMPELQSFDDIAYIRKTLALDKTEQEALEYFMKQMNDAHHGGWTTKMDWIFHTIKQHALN
Procedure: as §1, §2, §3

[1] = system: subcutaneous A2780 ovarian xenograft tumors; assay: A2780 human ovarian xenograft model in nude mice; type: in vivo; conditions: 30 mg/kg daily p.o., day 6, p<0.001 vs vehicle (ANOVA)
Procedure: Female nude mice (6-8 weeks of age; Charles River) were implanted subcutaneously with A2780 (5×10^6 cells/mouse in 0.1 ml HBSS) cells into the right flank. […] Tumor volumes were measured (SE is the standard error of the mean).
Tumors from mice treated with vehicle were also harvested as controls.

[2] = system: pSer473-Akt in A2780 cells; assay: pSer473 Akt assay to monitor PI3K pathway in A2780 cells (MSD); type: cell-based; conditions: Homo sapiens
In short: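 A2780 cells (15,000/well, adhered overnight) treated 1 h at 37 °C with compound, then lysed; pSer473-Akt and total Akt measured by MSD electrochemiluminescence. The pSer473/total Akt ratio gave percent inhibition versus DMSO, from which EC50 was derived.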

PI3 K Alpha = PI3 K Alpha (Homo sapiens, UniProt P42336); assay: PI3 kinase phosphorylation assays (homogenous solution phase, one step solid phase, ATP depletion/KinaseGlo); type: biochemical
Chain of PI3 K Alpha (P42336 whole entry): as the sequence (P42336 whole entry, canonical isoform) above
Chain of PI3 K Alpha (P27986 whole entry partner): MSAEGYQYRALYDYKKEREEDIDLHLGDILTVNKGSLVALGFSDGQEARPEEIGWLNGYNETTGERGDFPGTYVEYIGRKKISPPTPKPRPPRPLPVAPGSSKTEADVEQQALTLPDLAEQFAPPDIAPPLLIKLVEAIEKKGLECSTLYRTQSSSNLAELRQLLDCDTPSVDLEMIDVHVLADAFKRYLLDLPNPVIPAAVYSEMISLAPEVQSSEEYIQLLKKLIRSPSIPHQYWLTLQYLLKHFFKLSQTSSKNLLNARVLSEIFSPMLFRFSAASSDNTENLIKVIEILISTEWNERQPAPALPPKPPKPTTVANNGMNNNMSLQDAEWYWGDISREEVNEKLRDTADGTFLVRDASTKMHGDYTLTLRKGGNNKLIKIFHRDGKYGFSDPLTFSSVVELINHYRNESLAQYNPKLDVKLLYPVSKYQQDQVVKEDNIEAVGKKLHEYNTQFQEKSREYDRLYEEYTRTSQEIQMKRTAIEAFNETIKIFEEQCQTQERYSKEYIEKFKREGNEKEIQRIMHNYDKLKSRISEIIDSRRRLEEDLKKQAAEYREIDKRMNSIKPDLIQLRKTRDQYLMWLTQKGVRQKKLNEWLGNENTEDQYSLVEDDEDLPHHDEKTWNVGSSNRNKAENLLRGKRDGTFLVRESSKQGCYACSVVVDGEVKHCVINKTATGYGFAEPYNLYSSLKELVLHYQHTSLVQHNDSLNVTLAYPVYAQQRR

A2780 cells = assay: Viability assay in A2780 (Cell Titer Glo); type: cell-based, human; conditions: Homo sapiens
In short: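 A2780 cells (1,000/well, DMEM + 10% FBS) were exposed to 3-fold serial dilutions of compound for 72 hrs at 37° C, 5% CO2. Viable cells were read by Cell Titer Glo luminescence, in duplicate, and EC50 values were derived from the curves.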

[3] = A2780 cells, read-out: A2780 pAKT 473 EC50

T1 sequence (P42338 whole entry, canonical isoform): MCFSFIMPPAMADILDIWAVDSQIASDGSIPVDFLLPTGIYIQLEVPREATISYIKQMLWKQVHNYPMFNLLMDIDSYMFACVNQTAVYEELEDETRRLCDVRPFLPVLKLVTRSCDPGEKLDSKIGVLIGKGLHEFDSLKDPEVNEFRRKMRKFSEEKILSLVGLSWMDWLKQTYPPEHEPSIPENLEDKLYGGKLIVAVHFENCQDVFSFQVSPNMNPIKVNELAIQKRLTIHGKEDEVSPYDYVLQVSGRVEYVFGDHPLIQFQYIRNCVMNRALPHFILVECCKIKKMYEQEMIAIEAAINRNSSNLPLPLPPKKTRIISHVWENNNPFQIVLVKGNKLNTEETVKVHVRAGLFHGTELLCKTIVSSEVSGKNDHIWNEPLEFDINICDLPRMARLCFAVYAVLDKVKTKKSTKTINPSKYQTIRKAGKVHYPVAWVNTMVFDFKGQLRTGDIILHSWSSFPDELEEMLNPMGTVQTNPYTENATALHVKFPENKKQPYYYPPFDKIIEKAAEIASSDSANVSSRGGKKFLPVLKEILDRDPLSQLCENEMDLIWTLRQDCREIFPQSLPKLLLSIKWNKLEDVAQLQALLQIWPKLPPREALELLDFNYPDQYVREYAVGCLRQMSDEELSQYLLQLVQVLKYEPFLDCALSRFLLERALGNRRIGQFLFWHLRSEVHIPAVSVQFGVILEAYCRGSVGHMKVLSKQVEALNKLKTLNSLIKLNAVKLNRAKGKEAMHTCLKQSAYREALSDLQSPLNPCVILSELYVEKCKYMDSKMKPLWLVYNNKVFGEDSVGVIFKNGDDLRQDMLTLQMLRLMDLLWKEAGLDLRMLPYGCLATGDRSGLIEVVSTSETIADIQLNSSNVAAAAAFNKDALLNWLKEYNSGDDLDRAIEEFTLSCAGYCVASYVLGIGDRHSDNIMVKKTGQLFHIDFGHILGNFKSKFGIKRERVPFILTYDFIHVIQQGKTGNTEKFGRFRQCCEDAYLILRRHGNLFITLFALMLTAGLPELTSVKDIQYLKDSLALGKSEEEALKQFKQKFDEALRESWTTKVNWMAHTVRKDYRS

Row | Ki (PI3 kinase isoform beta) [µM] | Ki (human PI3Kγ (GST-p110γ)) [µM] | Ki (PI3 kinase isoform delta) [µM] | Ki (PI3 kinase isoform alpha) [µM] | Compound | other results
1 | < 1 | < 1 | < 1 | < 1 | CCn1nnc(CCNC(=O)Nc2cn3cc(-c4cnc(N)c(C(F)(F)F)c4)ccc3n2)n1 [Example 3-1, 1-[6-(6-Amino-5-trifluoromethyl-pyridin-3-yl)-imidazo[1,2-a]pyridin-2-yl]-3-[2-(2-ethyl-2H-tetrazol-5-yl)-ethyl]-urea] | –
2 | < 1 | < 1 | < 1 | < 1 | CC(C)n1nnc(CCNC(=O)Nc2cn3cc(-c4cnc(N)c(C(F)(F)F)c4)ccc3n2)n1 [Example 3-2, 1-[6-(6-Amino-5-trifluoromethyl-py-ridin-3-yl)-imidazo[1,2-a]pyridin-2-yl]-3-[2-(2-isopropyl-2H-tetrazol-5-yl)-ethyl]-urea] | –
3 | < 1 | < 1 | < 1 | < 10 | CC(C)n1nnc(CCNC(=O)Nc2cn3cc(-c4ccc(N)nc4)ccc3n2)n1 [Example 3-3, 1-[6-(6-Amino-pyridin-3-yl)-imidazo[1,2-a]pyridin-2-yl]-3-[2-(2-isopropyl-2H-tetrazol-5-yl)-ethyl]-urea] | –
4 | < 1 | < 1 | < 1 | < 1 | CCc1nnn(CCNC(=O)Nc2cn3cc(-c4cnc(N)c(C(F)(F)F)c4)ccc3n2)n1 [Example 3-4, 1-[6-(6-Amino-5-trifluoromethyl-py-ridin-3-yl)-imidazo[1,2-a]pyridin-2-yl]-3-[2-(5-ethyl-tetrazol-2-yl)-ethyl]-urea] | –
5 | < 1 | < 1 | < 1 | < 1 | Nc1ncc(-c2ccc3nc(NC(=O)NCCn4nnc(C5CC5)n4)cn3c2)cc1C(F)(F)F [Example 3-5, 1-[6-(6-Amino-5-trifluoromethyl-py-ridin-3-yl)-imidazo[1,2-a]pyridin-2-yl]-3-[2-(5-cyclopropyl-tetrazol-2-yl)-ethyl]-urea] | –
6 | – | – | – | – | CC(=O)Nc1cn2cc(-c3cnc(N)c(OC(C)C(F)(F)F)n3)ccc2n1 (stereo not shown) [Example 57, N-(6-(5-amino-6-(1,1,1-trifluoropropan-2-yloxy)pyrazin-2-yl)imidazo[1,2-a]pyridin-2-yl)acetamide] | tumor growth inhibition [1]: 79%; EC50 [2, 3]: < 1 µM
7 | – | – | – | – | CC(=O)Nc1cn2cc(-c3cnc(N)c(C#N)c3)ccc2n1 [Example 235, N-(6-(6-amino-5-cyanopyridin-3-yl)imidazo[1,2-a]pyridin-2-yl)acetamide] | IC50 (PI3 K Alpha; read-out: PI3K Alpha IC50): < 1 µM; EC50 [2, 3]: < 10 µM; EC50 (A2780 cells; A2780 cells, read-out: A2780 Cell prolif. EC50): < 10 µM
8 | – | – | – | – | CC(=O)Nc1nc2ccc(-c3cnc(N)c(C(F)(F)F)c3)cn2c1C#Cc1ccccn1 [Example 241, N-(6-(6-amino-5-(trifluoromethyl)pyridin-3-yl)-3-(pyridin-2-ylethnyl)imi-dazo[1,2-a]pyridin-2-yl)acetamide] | IC50 (PI3 K Alpha): < 1 µM; EC50 ([2]; A2780, read-out: A2780 pAKT 473 EC50): < 10 µM; EC50 (A2780 cells; A2780, read-out: A2780 Cell prolif. EC50): < 10 µM
